Reference: the NIST ThermoML archive (doi:10.1016/j.tca.2014.08.016)
Numbers after ± are expanded uncertainties.

Test: xn = mol fraction of the nth substance listed
Details: Liquid; for mass density: Buoyancy - hydrostatic balance with magnetic suspension - one sinker; for viscosity: Falling or rolling sphere viscometry

C=CCCCCCC [oct-1-ene] + C=CCCCC
Details	mass density [kg/m3]	viscosity [mPa·s]
298.15 K, 98 kPa, x1 = 0.2	685.08 ± 2.1	0.317 ± 0.007
298.15 K, 98 kPa, x1 = 0.4823	696.22 ± 2.1	0.36 ± 0.008
298.15 K, 98 kPa, x1 = 0.6923	705.6 ± 2.2	0.411 ± 0.01
298.15 K, 24510 kPa, x1 = 0.2	709.99 ± 2.2	0.395 ± 0.009
298.15 K, 24510 kPa, x1 = 0.4823	720.99 ± 2.2	0.444 ± 0.01
298.15 K, 24510 kPa, x1 = 0.6923	729.5 ± 2.2	0.511 ± 0.012
298.15 K, 49030 kPa, x1 = 0.2	727.77 ± 2.2	0.473 ± 0.011
298.15 K, 49030 kPa, x1 = 0.4823	736.94 ± 2.3	0.537 ± 0.013
298.15 K, 49030 kPa, x1 = 0.6923	745.31 ± 2.3	0.618 ± 0.015
298.15 K, 98060 kPa, x1 = 0.2	754.11 ± 2.3	0.644 ± 0.015
298.15 K, 98060 kPa, x1 = 0.4823	765.67 ± 2.4	0.737 ± 0.017
298.15 K, 98060 kPa, x1 = 0.6923	771.37 ± 2.4	0.859 ± 0.02
298.15 K, 196130 kPa, x1 = 0.2	792.06 ± 2.4	1.053 ± 0.025
298.15 K, 196130 kPa, x1 = 0.4823	801.39 ± 2.5	1.225 ± 0.029
298.15 K, 196130 kPa, x1 = 0.6923	806.92 ± 2.5	1.47 ± 0.035
302.9 K, 98 kPa, x1 = 0.6923	703 ± 2.1	0.396 ± 0.009
303.67 K, 98 kPa, x1 = 0.4823	692.48 ± 2.1	0.347 ± 0.008
305.25 K, 98 kPa, x1 = 0.2	679.54 ± 2.1	0.304 ± 0.007
312.9 K, 98 kPa, x1 = 0.6923	696.34 ± 2.1	0.36 ± 0.008
313.35 K, 98 kPa, x1 = 0.4823	685.54 ± 2.1	0.319 ± 0.008
313.65 K, 98 kPa, x1 = 0.2	672.69 ± 2.1	0.283 ± 0.007
322.39 K, 196130 kPa, x1 = 0.6923	796.19 ± 2.5	1.133 ± 0.027
322.63 K, 98060 kPa, x1 = 0.6923	759.23 ± 2.3	0.688 ± 0.016
322.7 K, 49030 kPa, x1 = 0.6923	730.47 ± 2.2	0.497 ± 0.012
322.74 K, 24510 kPa, x1 = 0.6923	712.73 ± 2.2	0.41 ± 0.01
322.86 K, 98 kPa, x1 = 0.6923	688.08 ± 2.1	0.325 ± 0.008
322.95 K, 196130 kPa, x1 = 0.2	781.57 ± 2.4	0.842 ± 0.02
323.14 K, 98060 kPa, x1 = 0.2	743.21 ± 2.3	0.525 ± 0.012
323.23 K, 24510 kPa, x1 = 0.2	692.21 ± 2.1	0.323 ± 0.008
323.24 K, 49030 kPa, x1 = 0.2	714.09 ± 2.2	0.388 ± 0.009
323.28 K, 98 kPa, x1 = 0.2	664.43 ± 2	0.256 ± 0.006
323.53 K, 196130 kPa, x1 = 0.4823	791.05 ± 2.4	0.962 ± 0.023
323.71 K, 98060 kPa, x1 = 0.4823	753.36 ± 2.3	0.589 ± 0.014
323.72 K, 49030 kPa, x1 = 0.4823	723.85 ± 2.2	0.434 ± 0.01
323.73 K, 24510 kPa, x1 = 0.4823	705.99 ± 2.2	0.358 ± 0.008
323.86 K, 98 kPa, x1 = 0.4823	678.22 ± 2.1	0.285 ± 0.007
354.41 K, 196130 kPa, x1 = 0.2	767.99 ± 2.4	0.675 ± 0.016
354.53 K, 196130 kPa, x1 = 0.4823	778.99 ± 2.4	0.757 ± 0.018
354.58 K, 98060 kPa, x1 = 0.4823	737.84 ± 2.3	0.478 ± 0.011
354.59 K, 49030 kPa, x1 = 0.4823	705.39 ± 2.2	0.354 ± 0.008
354.61 K, 24510 kPa, x1 = 0.4823	683.97 ± 2.1	0.291 ± 0.007
354.84 K, 98060 kPa, x1 = 0.2	727.23 ± 2.2	0.428 ± 0.01
355.02 K, 24510 kPa, x1 = 0.2	671.58 ± 2.1	0.259 ± 0.006
355.04 K, 49030 kPa, x1 = 0.2	694.07 ± 2.1	0.317 ± 0.007
355.16 K, 98060 kPa, x1 = 0.6923	741.82 ± 2.3	0.544 ± 0.013
355.27 K, 49030 kPa, x1 = 0.6923	713.02 ± 2.2	0.398 ± 0.009
355.35 K, 196130 kPa, x1 = 0.6923	782.46 ± 2.4	0.876 ± 0.021
355.44 K, 24510 kPa, x1 = 0.6923	691.53 ± 2.1	0.327 ± 0.008
390.42 K, 196130 kPa, x1 = 0.4823	763 ± 2.4	0.614 ± 0.014
390.6 K, 196130 kPa, x1 = 0.6923	764.29 ± 2.4	0.684 ± 0.016
390.61 K, 98060 kPa, x1 = 0.4823	718.3 ± 2.2	0.392 ± 0.009
390.66 K, 24510 kPa, x1 = 0.6923	668.32 ± 2	0.258 ± 0.006
390.68 K, 98060 kPa, x1 = 0.6923	722.16 ± 2.2	0.433 ± 0.01
390.73 K, 24510 kPa, x1 = 0.4823	661.95 ± 2	0.233 ± 0.006
390.76 K, 49030 kPa, x1 = 0.4823	683.17 ± 2.1	0.286 ± 0.007
390.89 K, 49030 kPa, x1 = 0.6923	690.6 ± 2.1	0.319 ± 0.008
395.05 K, 196130 kPa, x1 = 0.2	750.63 ± 2.3	0.535 ± 0.013
395.31 K, 98060 kPa, x1 = 0.2	706.62 ± 2.2	0.345 ± 0.008
395.33 K, 49030 kPa, x1 = 0.2	668.64 ± 2	0.253 ± 0.006
395.52 K, 24510 kPa, x1 = 0.2	641.62 ± 2	0.205 ± 0.005
432.98 K, 196130 kPa, x1 = 0.2	733.67 ± 2.2	0.451 ± 0.011
433.17 K, 196130 kPa, x1 = 0.6923	744.1 ± 2.3	0.549 ± 0.013
433.2 K, 98060 kPa, x1 = 0.6923	698.66 ± 2.1	0.349 ± 0.008
433.33 K, 49030 kPa, x1 = 0.6923	664.02 ± 2	0.255 ± 0.006
433.38 K, 24510 kPa, x1 = 0.6923	641.38 ± 2	0.204 ± 0.005
433.51 K, 98060 kPa, x1 = 0.2	682.68 ± 2.1	0.289 ± 0.007
433.58 K, 49030 kPa, x1 = 0.2	642.37 ± 2	0.213 ± 0.005
433.62 K, 24510 kPa, x1 = 0.2	614.08 ± 1.9	0.169 ± 0.004
435.46 K, 196130 kPa, x1 = 0.4823	741.63 ± 2.3	0.489 ± 0.012
435.49 K, 24510 kPa, x1 = 0.4823	631.36 ± 1.9	0.184 ± 0.004
435.61 K, 98060 kPa, x1 = 0.4823	693.82 ± 2.1	0.318 ± 0.008
435.7 K, 49030 kPa, x1 = 0.4823	656.28 ± 2	0.232 ± 0.005
467.82 K, 196130 kPa, x1 = 0.4823	725.29 ± 2.2	0.447 ± 0.011
467.87 K, 196130 kPa, x1 = 0.2	715.63 ± 2.2	0.403 ± 0.009
467.95 K, 49030 kPa, x1 = 0.4823	636.15 ± 1.9	0.207 ± 0.005
467.96 K, 24510 kPa, x1 = 0.4823	610.74 ± 1.9	0.162 ± 0.004
468.04 K, 98060 kPa, x1 = 0.2	661.09 ± 2	0.262 ± 0.006
468.06 K, 98060 kPa, x1 = 0.4823	675.8 ± 2.1	0.285 ± 0.007
468.07 K, 49030 kPa, x1 = 0.2	620.58 ± 1.9	0.19 ± 0.005
468.18 K, 24510 kPa, x1 = 0.2	589.18 ± 1.8	0.148 ± 0.004
469.83 K, 98060 kPa, x1 = 0.6923	677.9 ± 2.1	0.311 ± 0.007
469.84 K, 196130 kPa, x1 = 0.6923	725.11 ± 2.2	0.482 ± 0.011
470.05 K, 49030 kPa, x1 = 0.6923	641.64 ± 2	0.224 ± 0.005
470.16 K, 24510 kPa, x1 = 0.6923	618.99 ± 1.9	0.176 ± 0.004
